Reference: patent publication EP4813991A1 (iLeadBMS Co., Ltd., priority 2023, dated 2025)

Experiments:
[1] = system: HCC70 breast cancer cells; assay: Zebrafish xenograft breast cancer model (HCC70); type: in vivo; conditions: 48 hours, compared to the vehicle, FIG. 6
Protocol: Transgenic Tg(fli1:EGFP)y1 zebrafish embryos were cultured in E3 embryo medium with 0.2 mM 1-phenyl-2-thiourea (PTU) at 28 °C for 48 hours. HCC70 breast cancer cells were cultured using RPMI-1640 medium supplemented with 10 % FBS, and AGS gastric cancer cells were cultured using F-12K medium supplemented with 10 % FBS. Each cell was collected, labeled with Dil red fluorescent dye, and then subcutaneously transplanted into 2-day-old zebrafish embryos. After selecting embryos with tumors, they were classified into experimental groups (20 embryos per group), and each Example compound dissolved and diluted in DMSO across 2 to 3 concentration ranges, a DMSO control group, or a comparative compound were added, followed by incubation at 35.5 °C for 48 hours or 72 hours. In the breast cancer model, primary tumors were collected immediately after transplantation (Day 0) and after 48 hours (Day 2), and in the gastric cancer model, primary tumors were obtained immediately after transplantation (Day 0) and after 72 hours (Day 3). Images of the collected tumors were analyzed for reduction in tumor size compared to the DMSO control group using image software, and the number of disseminated cancer cells after 3 days was manually counted through the captured images, with the results shown in FIGs. 6, 7, and 8. […]

SW620 = assay: Colorectal cancer cell proliferation inhibitory activity, SW620; type: cell-based; conditions: Homo sapiens, SW-620; 72 hours, Cell Counting Kit-8, relative IC50
Protocol: Experiments were performed using seven types of colorectal cancer cell lines to measure the cell proliferation inhibitory ability of each Example compound. DLD-1, LoVo, SW620, SW480, HCT116, HCT15, and HT29 cells were dispensed into a 96-well plate at 100 µL of cell suspension per well using RPMI1640 medium containing 10 % FBS and 1 % PS, followed by incubation in a cell incubator at 37 °C and 5 % CO2. The next day, each Example compound dissolved and diluted in DMSO across 10 concentration ranges and a DMSO control group were treated on the cells for 72 hours. After completion of the compound treatment, 10 µL of Cell Counting Kit-8 (Dojindo) reagent was added to each well of the 96-well plate, followed by incubation for 2 hours. […] were measured after inserting the 96-well plate into an Envision plate reader […]. Relative IC50 values were calculated by fitting a dose-response curve using Graphpad PRISM software.
The colorectal cancer cell proliferation inhibitory activities of the Example compounds measured by the method described above were evaluated according to the following criteria, and the results are presented in Table 19.

IC50 (SW620) [µM] | Compound | reduction in tumor size [1]
 | N#CC1CN(c2cc(NCc3nc4cc(Cl)c(Cl)cc4[nH]3)c3ncc(C(F)(F)F)n3n2)C1 [Example 30, 1-(8-(((5,6-dichloro-1H-benzol[d]imidazol-2-yl)methyl)amino)-3-(trifluoromethyl)imidazo[1,2-b]pyridazin-6-yl)azetidine-3-carbonitrile] | dose-dependent reduction in tumor size
≤ 0.2 | CN1CCN(c2cc(NCc3nc4ccc(F)c(F)c4[nH]3)c3ncc(C(F)(F)F)n3n2)CC1 [Example 8, N-((6,7-difluoro-1H-benzo[d]imidazol-2-yl)methyl)-6-(4-methylpiperazin-1-yl)-3-(trifluoromethyl)imidazo[1,2-b]pyridazin-8-amine] | 
